From patent publication US20190269705A1, “METHODS AND MATERIALS FOR TREATING GRAFT VERSUS HOST DISEASE” (Regents of the University of Minnesota, priority 2017, published 2019)
Entries after “also recorded” stand apart in the source; their conditions may differ.

How the values were obtained:
[1] = test system: CD4 T cells (Th0 conditions); test: CD4 T cells activated and cultured in IL2 (Th0 conditions), flow cytometry
CD8 T cells = CD8 T cells activated on αCD3/CD28 + IL2, flow cytometry
Th17 cells [2] = test: RNA-Seq and gene set enrichment analysis, Th17; assay type: cell-based, mouse
Description: ATAC-Seq: Crude nuclei pellets were isolated as described elsewhere (see, e.g., Buenrostro et al., 2013 Nat Meth. 10(12):1213-1218) with modifications. Briefly, naïve CD4 T cells were skewed to Th1 and Th17 subsets in vitro with vehicle or in the presence of 500 nM CB839. At Day 5, T cells were re-isolated for CD4+ cells using Miltenyi CD4+ negative selection kit (Cat #: 130-104-454). 1×10^5 cells were removed for nuclei extraction in ATAC-Seq lysing buffer. Cells were exposed to Tn5+ adaptor proteins from Nextera DNA for 30 min at 37° C. and immediately placed on ice. Transposed eluate was amplified via PCR using Nextera DNA preparation kit (Illumina, Cat #: FC-121-1030), NEBNext High-fidelity 2× PCR mix (New England Labs, Cat #: M0541), and multiplexed (Illumina, Cat #: FC-121-1011). Samples were purified using Zymo DNA cleanup kit (Cat #: D4011). QC of samples was run on bioanalyzer before being sent for sequencing. RNA-Seq: Th1 and Th17 cells skewed with or without CB839 were isolated as previously described and total RNA extracted (Qiagen RNEasy Mini kit, Cat #: 74104). RNA was sent to VANTAGE core at Vanderbilt University and sequenced on HiSeq 2500. n=3 for each sample was analyzed. Samples were analyzed using the R program DESeq2. GSEA was performed using MSigDB.
Th1 and Th17 cells were skewed with or without CB839 over 5 days and total RNA extracted for RNAseq (Cat #: 74104). RNA was sent to VANderbilt Technologies for Advanced GEnomics (VANTAGE) core at Vanderbilt University. Libraries were prepared using 50 ng of total RNA using the NEBNext Ultra RNA Library Kit for Illumina (Cat #E7530) and sequenced on HiSeq3000 at 75 bp paired-end. Each sample was analyzed in triplicate. Sequencing reads were aligned against the Mouse GENCODE genome, Version M14 (Jan. 2017 freeze, GRCm38, Ensembl 89) using the Spliced Transcripts Alignment to a Reference (STAR) software (ref: 26187010 and 23104886). Reads were preprocessed and index using SAMtools (ref: 19505943). Mapped reads were assigned to gene features and quantified using featureCounts (ref: 24227677). Normalization and differential expression was performed using DESeq2 (Love et al., 2014). Skewed lymphocytes with and without CB839 were compared in both Th1 and Th17 groups. […] The top 200 most differentially expressed genes were used for unsupervised hierarchical cluster analysis and visualized using heatmap representations.

Th17 cells [3] = test: CD4 T cells in Th17 skewing conditions, flow cytometry
[4] = activated CD4 T cells, IL2, day 5
[5] = CD8 T cells, five days stimulation
[6] = Th17 Cells: Decreased Pathways, HALLMARK_CHOLESTEROL_HOMEOSTASIS
[7] = Th17 Cells: Decreased Pathways, HALLMARK_E2F_TARGETS
[8] = Th17 Cells: Decreased Pathways, HALLMARK_G2M_CHECKPOINT
[9] = Th17 Cells: Decreased Pathways, HALLMARK_GLYCOLYSIS
[10] = Th17 Cells: Decreased Pathways, HALLMARK_IL2_STAT5_SIGNALING
[11] = Th17 Cells: Decreased Pathways, HALLMARK_MTORC1_SIGNALING
[12] = Th17 Cells: Decreased Pathways, HALLMARK_MYC_TARGETS_V1
[13] = Th17 Cells: Decreased Pathways, HALLMARK_MYC_TARGETS_V2
[14] = Th17 Cells: Decreased Pathways, HALLMARK_TNFA_SIGNALING_VIA_NFKB
[15] = Th17 Cells: Decreased Pathways, HALLMARK_UNFOLDED_PROTEIN_RESPONSE
[16] = Th17 Cells: Increased Pathways, HALLMARK_APICAL_JUNCTION
[17] = Th17 Cells: Increased Pathways, HALLMARK_COMPLEMENT
[18] = Th17 Cells: Increased Pathways, HALLMARK_EPITHELIAL_MESENCHYMAL_TRANSITION
[19] = Th17 Cells: Increased Pathways, HALLMARK_HYPOXIA
[20] = Th17 Cells: Increased Pathways, HALLMARK_INFLAMMATORY_RESPONSE
[21] = Th17 Cells: Increased Pathways, HALLMARK_INTERFERON_GAMMA_RESPONSE
[22] = Th17 Cells: Increased Pathways, HALLMARK_MYOGENESIS
[23] = Th17 Cells: Increased Pathways, HALLMARK_P53_PATHWAY
[24] = Th17 Cells: Increased Pathways, HALLMARK_TNFA_SIGNALING_VIA_NFKB
[25] = Th17 Cells: Increased Pathways, HALLMARK_XENOBIOTIC_METABOLISM

O=C(Cc1cccc(OC(F)(F)F)c1)Nc1ccc(CCCCc2nnc(NC(=O)Cc3ccccn3)s2)nn1 [CB839]
Foxp3 expression ([1]; CD4+ T cells stimulated in the presence of IL-2 and CB839): unchanged | phospho-S6 ([1]; Th0 cells in the presence of IL2): enhanced phospho-S6 | IFNγ expression [1, 4]: greater expression of IFNγ | Tbet expression [1, 4]: greater expression | Granzyme B (CD8 T cells; CD8 T cells, 4-5 days stimulation): increased levels of Granzyme B | Eomes (CD8 T cells; [5]): increased levels | Perforin (CD8 T cells; [5]): increased | Tbet (CD8 T cells; [5]): increased levels | markers of proliferation (CD8 T cells; [5]): increased levels | portion of CD8 T cells expressing inhibitory receptors Lag3 and PD-1 (CD8 T cells; [5]): increased | phospho-S6 (CD8 T cells; CTL in the presence of IL2): enhanced phospho-S6 | compensation by GLS2 at the RNA level (Th17 cells [2]; Th17, CB839-treated): No compensation by GLS2 at the RNA level | direction of the 200 genes with the most altered expression (Th17 cells [2]; Th17, CB839 vs vehicle): more of the most changed genes were downregulated; also recorded: more of these genes were downregulated | gene set enrichment: cell cycle, mTORC1, Myc, IL2 signaling pathways (Th17 cells [2]; Th17, CB839 vs vehicle): downregulated | # Genes in Overlap (k) (Th17 cells [2]; [6]): 25 | k/K (Th17 cells [2]; [6]): 0.3378 | # Genes in Overlap (k) (Th17 cells [2]; [7]): 107 | k/K (Th17 cells [2]; [7]): 0.535 | # Genes in Overlap (k) (Th17 cells [2]; [8]): 94 | k/K (Th17 cells [2]; [8]): 0.47 | # Genes in Overlap (k) (Th17 cells [2]; [9]): 31 | k/K (Th17 cells [2]; [9]): 0.155 | # Genes in Overlap (k) (Th17 cells [2]; [10]): 39 | k/K (Th17 cells [2]; [10]): 0.195 | # Genes in Overlap (k) (Th17 cells [2]; [11]): 70 | k/K (Th17 cells [2]; [11]): 0.35 | # Genes in Overlap (k) (Th17 cells [2]; [12]): 75 | k/K (Th17 cells [2]; [12]): 0.375 | # Genes in Overlap (k) (Th17 cells [2]; [13]): 31 | k/K (Th17 cells [2]; [13]): 0.5345 | # Genes in Overlap (k) (Th17 cells [2]; [14]): 34 | k/K (Th17 cells [2]; [14]): 0.17 | # Genes in Overlap (k) (Th17 cells [2]; [15]): 29 | k/K (Th17 cells [2]; [15]): 0.2566 | # Genes in Overlap (k) (Th17 cells [2]; [16]): 19 | k/K (Th17 cells [2]; [16]): 0.095 | # Genes in Overlap (k) (Th17 cells [2]; [17]): 17 | k/K (Th17 cells [2]; [17]): 0.085 | # Genes in Overlap (k) (Th17 cells [2]; [18]): 16 | k/K (Th17 cells [2]; [18]): 0.08 | # Genes in Overlap (k) (Th17 cells [2]; [19]): 15 | k/K (Th17 cells [2]; [19]): 0.075 | # Genes in Overlap (k) (Th17 cells [2]; [20]): 16 | k/K (Th17 cells [2]; [20]): 0.08 | # Genes in Overlap (k) (Th17 cells [2]; [21]): 25 | k/K (Th17 cells [2]; [21]): 0.125 | # Genes in Overlap (k) (Th17 cells [2]; [22]): 18 | k/K (Th17 cells [2]; [22]): 0.09 | # Genes in Overlap (k) (Th17 cells [2]; [23]): 19 | k/K (Th17 cells [2]; [23]): 0.095 | # Genes in Overlap (k) (Th17 cells [2]; [24]): 17 | k/K (Th17 cells [2]; [24]): 0.085 | # Genes in Overlap (k) (Th17 cells [2]; [25]): 17 | k/K (Th17 cells [2]; [25]): 0.085 | Myc protein (Th17 cells [3]; Th17): modestly increased Myc in Th1 but not Th17 cells | proliferation (Th17 cells [3]; Th17): decreased cytokine production and proliferation only from Th17 cells | H3K27 tri-methylation, initially (Th17 cells [3]; Th17, Day 3): increased H3K27 tri-methylation | proliferation (Th17 cells [3]; Th17, after three days in culture): impaired proliferation | ROS (DCFDA) (Th17 cells [3]; Th17, day 5): ROS increased | expression of KLRG1 and PD1 (Th17 cells [3]; Th17, day 5): decreased or unchanged | global H3K27 trimethylation (Th17 cells [3]; Th17, day 5, normalized to total H3): increased | phospho-S6 (Th17 cells [3]; Th17, day 5, with IL2): decreased phosphor-S6; also recorded: decreased phospho-S6 | ROS (DCFDA) (Th17 cells [3]; Th17, day 5, listed as CD839): increased ROS | global H3K4 trimethylation (Th17 cells [3]; Th17, day five): increased | total rRNA levels per cell (Th17 cells [3]; Th17, day five): decreased | Th17 cytokine production and differentiation (Th17 cells [3]; Th17 skewing, 5 days, CB839 vs vehicle): decreased cytokine production and proliferation only from Th17 cells | induction of Treg (Foxp3) (Th17 cells [3]; under Th17 conditions): failed to do so
